Consider five compounds from patent US8513275B2 (Salix Pharmaceuticals, Ltd, priority 2010, dated 2013).

Type in all cases: physicochemical
Series [1] in a line: Particle size distributions for Rifaximin forms. The conditions noted are these: for d10: 10% of the total volume of particles less than the indicated size; for d50: 50% of the total volume of particles less than the indicated size; for d90: 90% of the total volume of particles less than the indicated size.
Series [2] can be described thus: Dynamic vapor sorption (moisture sorption, moisture balance) with post-sorption XRPD. The conditions noted are these: for weight loss from 95 to 5% RH: desorption 95-5% RH; for weight loss upon equilibration at 5% RH: initial equilibration at 5% RH; for post-moisture sorption (post-MB / post-DVS) XRPD result: solid after DVS cycle; for weight gain from 5 to 95% RH: sorption 5-95% RH; for overall weight loss in moisture sorption: whole sorption/desorption cycle. The protocol:
Automated vapor sorption (VS) data were collected on a VTI SGA-100 Vapor Sorption Analyzer. NaCl and PVP were used as calibration standards. Samples were not dried prior to analysis. […] The equilibrium criterion used for analysis was less than 0.0100% weight change in 5 minutes with a maximum equilibration time of 3 hours. Data were not corrected for the initial moisture content of the samples.
Automated dynamic vapor sorption (DVS) data were collected on a VTI SGA-100 Vapor Sorption Analyzer. NaCl and PVP were used as calibration standards. Samples were not dried prior to analysis. […] The equilibrium criterion used for analysis was less than 0.0100% weight change in 5 minutes with a maximum equilibration time of 3 hours.

The nature of series [3]: Relative humidity stressing at ambient temperature, XRPD of stressed solid. The conditions noted are these: 84% RH, RT, 19 days.
Series [4] in a line: Ambient storage / exposure to ambient conditions, XRPD. The source says:
Form θ drying and physical stability evaluation was not formally included in the protocol. […] The initial sample was generated from nitrogen drying of Form ζ. The initial XRPD pattern was acquired utilizing parameters not consistent with the other data acquisition.

Where [5] appears, read: listed as As-Prepared Rifaximin Form κ.
The mark [6] stands for this setting: listed as post-drying rifaximin Form κ.

In series [1], `CO[C@H]1/C=C/O[C@@]2(C)Oc3c(C)c(O)c4c(O)c(c5c(nc6cc(C)ccn65)c4c3C2=O)NC(=O)/C(C)=C\C=C\[C@H](C)[C@H](O)[C@@H](C)[C@@H](O)[C@@H](C)[C@H](OC(C)=O)[C@@H]1C` [As received, rifaximin] came in with a d10 of 0.399 μm, a d50 of 8.629 μm and a d90 of 33.891 μm.
Take `CO[C@H]1/C=C/O[C@@]2(C)Oc3c(C)c(O)c4c(O)c(c5c(nc6cc(C)ccn65)c4c3C2=O)NC(=O)/C(C)=C\C=C\[C@H](C)[C@H](O)[C@@H](C)[C@@H](O)[C@@H](C)[C@H](OC(C)=O)[C@@H]1C` [Form κ, rifaximin]: in series [1], the d10 is reported as 15.551 μm, the d50 is 90.684 μm and the d90 amounted to 225.815 μm. Further, in series [2] (setting [5]), the “weight loss from 95 to 5% RH” value was 12% wt loss from 95 to 5% RH, the “weight loss upon equilibration at 5% RH” value is reported as 7.5% wt loss upon equilibration at 5% RH, the “post-moisture sorption (post-MB / post-DVS) XRPD result” value is listed as “Disordered” and the “weight gain from 5 to 95% RH” value is 4.6% wt gain from 5 to 95% RH. In addition, the “overall weight loss in moisture sorption” value in series [2] (setting [5]) is reported as “Overall wt loss = 14. 9% (equivalent to ~2 moles of IPA)”. Besides, in series [2] (listed as rifaximin Form κ), the “weight loss from 95 to 5% RH” value is listed as 12%, the “weight loss upon equilibration at 5% RH” value turned out to be 7.5%, the “post-moisture sorption (post-MB / post-DVS) XRPD result” value was “disordered” and the “weight gain from 5 to 95% RH” value amounted to 4.6%. The “overall weight loss in moisture sorption” value in series [2] (listed as rifaximin Form κ) is reported as “approximately 14.9%”.
Turning to `CO[C@H]1/C=C/O[C@@]2(C)Oc3c(C)c(O)c4c(O)c(c5c(nc6cc(C)ccn65)c4c3C2=O)NC(=O)/C(C)=C\C=C\[C@H](C)[C@H](O)[C@@H](C)[C@@H](O)[C@@H](C)[C@H](OC(C)=O)[C@@H]1C` [Post-Drying Rifaximin Form κ, rifaximin], in series [2], the “weight loss from 95 to 5% RH” value was 11.0% wt lost from 95%-5% RH, the “weight loss upon equilibration at 5% RH” value was 0.1% wt loss upon equilibration at 5% RH, the “post-moisture sorption (post-MB / post-DVS) XRPD result” value is “Disordered κ” and the “weight gain from 5 to 95% RH” value is reported as 7.7% wt gain from 5%-95% RH. The “overall weight loss in moisture sorption” value in series [2] is on record as “approximately 3.3%”. Further, in series [2] (setting [6]), the “weight loss from 95 to 5% RH” value is recorded as 11%, the “weight loss upon equilibration at 5% RH” value is 0.1%, the “post-moisture sorption (post-MB / post-DVS) XRPD result” value is “disordered” and the “weight gain from 5 to 95% RH” value came out at 7.7%. Further, in series [3], the “XRPD result after humidity stress” value is given as “Disordered κ”.
Regarding `C1CNCCN1.CC#N.COC1C=COC2(C)Oc3c(C)c(O)c4c(O)c(c5c(nc6cc(C)ccn65)c4c3C2=O)NC(=O)C(C)=CC=CC(C)C(O)C(C)C(O)C(C)C(OC(C)=O)C1C.COC1C=COC2(C)Oc3c(C)c(O)c4c(O)c(c5c(nc6cc(C)ccn65)c4c3C2=O)NC(=O)C(C)=CC=CC(C)C(O)C(C)C(O)C(C)C(OC(C)=O)C1C` (centres unmarked) [cocrystal 2, rifaximin:piperazine cocrystal 2], the “behaviour upon exposure to ambient conditions” value in series [4] is reported as “rapidly desolvates”. Also, the “form conversion after exposure to ambient conditions” value was “conversion to material similar to cocrystal 1, but exhibiting broad peaks with additional peaks at approximately 5 and 17°2θ” in series [4] (longer exposure (ex. 12 days)); “convert to cocrystal 1” in series [4] (relatively short exposure (ex. 5-6 hours)).
In series [1], `CO[C@H]1/C=C/O[C@@]2(C)Oc3c(C)c(O)c4c(O)c(c5c(nc6cc(C)ccn65)c4c3C2=O)NC(=O)/C(C)=C\C=C\[C@H](C)[C@H](O)[C@@H](C)[C@@H](O)[C@@H](C)[C@H](OC(C)=O)[C@@H]1C` [η, rifaximin] returned a d10 of 3.857 μm, a d50 of 79.844 μm and a d90 of 290.353 μm.
